# According to patent US8846653B2, “Delta-tocotrienol treatment and prevention of pancreatic cancer” (University of South Florida, priority 2006, dated 2014):
# Assays:
# MIA PaCa-2 cells = test: Trypan blue cell death, δ-tocotrienol, 5-FU or combination, 24 hours; format: cell-based, human; conditions: MIA PaCa-2, 50 μM each
# Protocol: MIA PaCa-2 cells were treated vehicle or an anti-proliferative treatment comprising 50 μM δ-tocotrienol, 50 μM 5-FU, or 50 μM δ-tocotrienol and 50 μM 5-FU for 24 hours. Cells were harvested, fixed, permeablized and stained with trypan blue.
# MIA PaCa2 xenografts = test: MIA PaCa2 luciferase xenograft tumor growth in nude mice; format: in vivo; conditions: 100 mg/kg/day by gavage
# Protocol: (§1) Rate of growth by day 10 of treatment is less in the tocotrienol treatment group. Stable transfectants of MIA PaCa2 cells with luciferase were injected subcutaneously into nude mice. Tumor volumes were measured every 2 days with calibers and the rate of growth was determined weekly by measuring tumor luminescence using the IVIS 100 Xenogen system. Tumors of similar volume (100-150 mm^3) and rate of growth based on luminescence were randomized to receive either vehicle or δ-tocotrienol (100 mg/kg/day) by gavage for 20 days.
# as §1, with “Stable” for “Rate of growth by day 10 of treatment is less in the tocotrienol treatment group. Stable”, “mice. Mice were treated with either rice bran oil (vehicle) or δ-tocotrienol (100 mg/kg/day) via gavage five times per week.” for “mice.”
# MIA PaCa2 cells [1] = test: Proliferation by MTT, increasing concentrations of δ-tocotrienol; format: cell-based, human; conditions: MIA PaCa2, at 24 hours; read-out: IC50 (inhibition of proliferation, MTT)
# Protocol: FIG. 22 is a graph wherein MIA PaCa2 pancreatic cancer cells (3×10^3) were plated in 96 well plates and treated the following day with δ-tocotrienol. Proliferation was assessed by MTT at 24 hour intervals. […] HPDE 6C7 cells were also treated with increasing concentrations of δ-tocotrienol for 24 hours.
# (§2) MIA PaCa2, SW1990, BXPC3, and HPDE 6C7 cells (3×10^3) were cultured as described in the Examples above, in 96-well plates and treated the following day with increasing concentrations of δ-tocotrienol.
# MIA PaCa2 cells [2] = test: Cell cycle phase by propidium iodide flow cytometry; format: cell-based, human; conditions: MIA PaCa2, 20 μM, 24 hours
# Protocol: (§3) MIA PaCa2, SW 1990, BXPC3 and HPDE 6C7 cells were treated with either 8-tocotrienol 20 μM or vehicle for 24 hours. Cells were harvested, washed twice in PBS, and fixed in ethanol overnight. Pellets were washed the following day in PBS, stained with propidium iodide, and analyzed by flow cytometry for cell cycle phase. […] Important regulators of the G1 cell cycle phase include members of the cyclin kinase inhibitor family. One of these members, p27^kip1, appears to be important in the progression of pancreatic cancer.
# HPDE 6C7 cells = test: as above; format: cell-based, human; conditions: HPDE 6C7, 20 μM, 24 hours
# Protocol: as §3
# SW 1990 cells = test: as above; format: cell-based, human; conditions: SW 1990, 20 μM, 24 hours
# Protocol: as §3
# BXPC3 cells [3] = test: as above; format: cell-based, human; conditions: BXPC3, 20 μM, 24 hours
# Protocol: as §3
# p-AKT = test: Immunoblot for p-AKT and AKT; format: cell-based, human; conditions: MIA PaCa2 and SW1990, 20 μM, 24 and 48 hours
# Protocol: The Ras effector pathways Raf-MEK-ERK and PI3 kinase-AKT are important for cell proliferation and survival, respectively. Pancreatic cancer cell lines (MIA PaCa2, SW1990, BXPC3) and HPDE 6C7 cells were treated with 8-tocotrienol (20 μM) and cell lysates were collected and prepared at progressive time intervals as described above. Proteins from lysates were run by SDS PAGE and immunoblotted with the following antibodies: Ras, p-cRaf (ser 338), p-MEK1/2, MEK1/2, pERK 44/42, ERK 44/42 (Cell Signaling) and c-Raf (BD Transduction Laboratories). […] The MIA PaCa2 and SW1990 cells were then tested for AKT inhibition. The cells were treated with δ-tocotrienol (20 μM) for 24 and 48 hours and cell lysates were run by SDS-PAGE and immunoblotted for p-AKT and AKT (Cell Signaling). […] Taken together, the inhibition of downstream effectors of oncogenic Ras signaling by δ-tocotrienol without an effect on Ras protein levels may indicate a negative regulatory role of 8-tocotrienol on the function of oncogenic Ras. The pancreatic ductal epithelial cell proliferative inhibition by δ-tocotrienol was tested to see if it occurs through blocking aberrant signal transduction cascades. […]
# BxPc-3 cells = test: Annexin V-FITC staining, flow cytometry for apoptosis; format: cell-based, human; conditions: BxPc-3, varying concentrations, 24 hours
# Protocol: FIG. 4 is a graph wherein BXPC3 pancreatic cancer cells were treated with in varying concentrations of δ-tocotrienol or vehicle for 24 hours. Cells were collected and stained with Annexin V-FITC and analyzed by flow cytometry for apoptosis.
# MiaPaCa2 and HPDE 6C7 cells were cultured, as discussed above, and treated with δ-tocotrienol or vehicle. […] MiaPaCa-2, BxPc-3, and SW1990 pancreatic cancer cells were treated with in varying concentrations of δ-tocotrienol or vehicle for 24 hours. The cells were then harvested for annexin V-FITC staining and analyzed by flow cytometry.
# [4] = system: p27^kip1 luciferase reporter; test: p27^kip1 luciferase reporter assay; format: cell-based, human; conditions: Mia PaCa2, 20 μM, 24 hours
# Protocol: The mechanism by which δ-tocotrienol upregulates p27^kip1 protein expression was investigated using a luciferase reporter assay. Mia PaCa2 cells transfected with a p27^kip1 luciferase reporter (Wang, et al. Activation of p27Kip1 Expression by E2F1. A negative feedback mechanism. J Biol. Chem. 2005 Apr. 1; 280(13):12339-43. Epub 2005 Feb. 14) were treated with either δ-tocotrienol (20 μM) or vehicle for 24 hours and luciferase activity was then measured using a luminometer.
# BXPC3 cells [5] = test: Proliferation by MTT, increasing concentrations of δ-tocotrienol; format: cell-based, human; conditions: BXPC3, at 24 hours; read-out: IC50 (inhibition of proliferation, MTT)
# Protocol: FIG. 24 is a graph wherein BXPC3 pancreatic cancer cells (3×10^3) were plated in 96 well plates and treated the following day with δ-tocotrienol. Proliferation was assessed by MTT at 24 hour intervals. […] HPDE 6C7 cells were also treated with increasing concentrations of δ-tocotrienol for 24 hours.
# as §2
compound,measurement,setting,value
"CC(C)=CCC/C(C)=C/CC/C(C)=C/CC[C@]1(C)CCc2cc(O)cc(C)c2O1 [T3 delta, delta tocotrienol]",cell death (Trypan Blue),MIA PaCa-2 cells,significantly more than 5-FU alone
same,rate of growth by tumor luminescence,MIA PaCa2 xenografts; day 10 of treatment,significantly less
same,reduction in tumor growth,"MIA PaCa2 xenografts; nude mice, vs vehicle",50%
same,IC50,MIA PaCa2 cells [1],20 to 25 µM
same,cell cycle phase,MIA PaCa2 cells [2],significant G1 cell cycle arrest
same,cell cycle phase,HPDE 6C7 cells,no effect on cell cycle phase
same,cell cycle phase,SW 1990 cells,significant G1 cell cycle arrest
same,cell cycle phase,BXPC3 cells [3],significant G1 cell cycle arrest
same,p-AKT protein levels,p-AKT,decrease in p-AKT protein levels
same,induction of apoptosis (annexin V-FITC),BxPc-3 cells,dose dependent induction of apoptosis
same,luciferase activity (p27^kip1 reporter),[4],increase in luciferase activity
same,IC50,BXPC3 cells [5],20 to 25 µM
